Reference: patent US20210069351A1, “METHOD FOR SCREENING PAIN INHIBITING SUBSTANCE” (priority 2017, published 2021)

Legend:
β-endorphin = assay: Neuropeptide and cytokine concentrations in spinal cord dorsal horn microdialysate after pregabalin; assay type: in vivo, rat; conditions: 30 mg/kg pregabalin, neuropathic pain model and control
Source text: Spared nerve injury (SNI) models were used to assess the concentration of a pain indicator substance present in a dorsal horn in the spinal cord. To generate an efficient neuropathic pain model, the rats were anesthetized under 3% isoflurane (Hana Pharm., South Korea), after incision on the left hind of the rat leg the common peroneal and the tibial nerve of three peripheral nerve branches in the sciatic nerve were axotomized and the sural nerve was spared then the surgical site was closed (FIG. 1). After surgery, animals were placed in the home cage to recover. 2 weeks after surgery, hypersensitivity will occur in the lateral area of the rat left hind paw.
Before inserting microdialysis probe into the tissue, the probe was immersed in 70% ethanol and washed for 15 minutes at the flow rate of 3.5 ul/min. Then, the probe was immersed in distilled water and washed for 15 minutes in the same protocol. When the washing step was completed, the probe was inserted at a depth of approximately 2 mm into the dorsal horn of the L1 spinal cord (FIG. 4). […]
For analysis of the neuropeptide and cytokine of the test samples was used using “Luminex 200 multiplex system” by multiplex cytokines assay. Ten most important of pain-related neuropeptides such as IFN-gamma, IL-1 beta, IL-6, IL-10, TNF-α, MCP-1, MIP-1α, BDNF, substance P and β-endorphin and cytokines were analyzed using a total of 4 kits.

[1] = Stability of GABA and glutamate test samples under storage, treatment and analysis conditions; assay type: physicochemical
Description: The test samples were stored in a freezer at −70° C., and thawed at room temperature before use. 20 μL of microdialysate was added to 20 μL of acetonitrile, well mixed (vortexing, 30 sec) and centrifuged at 3,000 rpm for 5 minutes. A supernatant was taken and injected by 5 μL for LC-MS/MS analysis.
Stability was tested under various conditions for which GABA and a glutamate test sample could be exposed.

Compound: CC(C)C[C@H](CN)CC(=O)O [pregabalin]
- concentrations of β-endorphin in microdialysate (β-endorphin): significantly increased and then decreased

Compound: NCCCC(=O)O [GABA, γ-aminobutyric acid]
- Remaining, freeze/thaw ([1]; 20 ng/mL): 103.1%
- Remaining, freeze/thaw ([1]; 100 ng/mL): 106.7%
- Remaining, freeze/thaw ([1]; 800 ng/mL): 101.6%
- Remaining, long term stability ([1]; 1 month, 20 ng/mL): 101.8%
- Remaining, long term stability ([1]; 1 month, 100 ng/mL): 102.3%
- Remaining, long term stability ([1]; 1 month, 800 ng/mL): 97.7%
- Remaining, autosampler tray ([1]; 6 h, 20 ng/mL): 105.4%
- Remaining, microdialysis sample at RT ([1]; 6 h, 20 ng/mL): 105.3%
- Remaining, autosampler tray ([1]; 6 h, 100 ng/mL): 101.2%
- Remaining, microdialysis sample at RT ([1]; 6 h, 100 ng/mL): 100.6%
- Remaining, autosampler tray ([1]; 6 h, 800 ng/mL): 92.1%
- Remaining, microdialysis sample at RT ([1]; 6 h, 800 ng/mL): 91.8%

Compound: N[C@@H](CCC(=O)O)C(=O)O [Glutamate, glutamate]
- Remaining, freeze/thaw ([1]; 3 cycles, 20 ng/mL): 104.1%
- Remaining, freeze/thaw ([1]; 3 cycles, 100 ng/mL): 100.8%
- Remaining, freeze/thaw ([1]; 3 cycles, 800 ng/mL): 101.9%
- Remaining, autosampler tray ([1]; 4° C. for 6 h, 20 ng/mL): 106.5%
- Remaining, autosampler tray ([1]; 4° C. for 6 h, 100 ng/mL): 102.3%
- Remaining, autosampler tray ([1]; 4° C. for 6 h, 800 ng/mL): 101.1%
- Remaining, microdialysis sample at RT ([1]; RT for 6 h, 20 ng/mL): 101.3%
- Remaining, microdialysis sample at RT ([1]; RT for 6 h, 100 ng/mL): 97.3%
- Remaining, microdialysis sample at RT ([1]; RT for 6 h, 800 ng/mL): 99.8%
- Remaining, long term stability ([1]; −70° C. 1 month, 20 ng/mL): 104.2%
- Remaining, long term stability ([1]; −70° C. 1 month, 100 ng/mL): 98.6%
- Remaining, long term stability ([1]; −70° C. 1 month, 800 ng/mL): 96.0%
